Data on seven molecules can be found in PubChem BioAssay (NCI).

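Cells were grown in 96-well plates and exposed to each compound for 48 hours at five concentrations; endpoints were interpolated linearly between bracketing concentrations, or set to the highest concentration if not reached. GI50 marks 50% less growth. At the TGI there is no net growth.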

Test systems include A549 NSCLC; HCC-2998 colon; HCT-116 colon; HS 578T breast; MALME-3M melanoma; MDA-MB-231 breast; MDA-MB-435; OVCAR-3 ovarian; RPMI-8226 leukemia; SK-OV-3 ovarian.
What all share (assay): NCI anticancer screen, dose series, 48 h

Turning to `O=C1NC(O)C(c2c[nH]c3ccccc23)=C1c1c[nH]c2ccccc12` (configuration not stated), the GI50 was > 25 µM in the assay on A549 NSCLC; > 25 µM with HCC-2998 colon; > 25 µM in the assay with HCT-116 colon; 25 µM with HS 578T breast; > 25 µM in the assay on MALME-3M melanoma; > 16.5 µM in the assay on MDA-MB-231 breast. For the same molecule, the GI50 with MDA-MB-435, with OVCAR-3 ovarian, with RPMI-8226 leukemia and in the assay with SK-OV-3 ovarian was > 25 µM each time. Further, the TGI with A549 NSCLC, with HCC-2998 colon, in the assay on HCT-116 colon, with HS 578T breast, in the assay with MALME-3M melanoma and with MDA-MB-231 breast was > 25 µM each time. For the same molecule, the TGI in the assay with MDA-MB-435, in the assay on OVCAR-3 ovarian, in the assay on RPMI-8226 leukemia and with SK-OV-3 ovarian was > 25 µM each time.

On to `O=C(CNc1ccc2c(c1)C(=O)c1ccccc1C2=O)Nc1ccc2c(c1)C(=O)c1ccccc1C2=O`, for which the GI50 was 1.68 µM in the assay on A549 NSCLC; 1.58 µM in the assay on HCC-2998 colon; 0.24 µM in the assay with HCT-116 colon; 2.29 µM in the assay on HS 578T breast; 0.739 µM with MALME-3M melanoma; 1.31 µM in the assay with MDA-MB-231 breast. Moreover, the GI50 in the assay with MDA-MB-435 is 0.85 µM; with OVCAR-3 ovarian, 0.71 µM; with RPMI-8226 leukemia, 0.957 µM; in the assay with SK-OV-3 ovarian, 1.82 µM. Also, the TGI in the assay with A549 NSCLC was 3.58 µM; in the assay with HCC-2998 colon it was 2.99 µM; in the assay on HCT-116 colon it was 0.711 µM; in the assay with HS 578T breast it was 13.2 µM; in the assay on MALME-3M melanoma it was 2.36 µM; with MDA-MB-231 breast, 4.71 µM. Further, the TGI was 2.29 µM with MDA-MB-435, 1.83 µM with OVCAR-3 ovarian, 3.46 µM in the assay on RPMI-8226 leukemia and 6.99 µM in the assay on SK-OV-3 ovarian.

Take `COc1ccc(/C=C/C(=O)c2ccc(SC)cc2)cc1OC`: the GI50 in the assay on A549 NSCLC was 15.8 µM; with HCC-2998 colon, 3.27 µM; in the assay with HCT-116 colon, 2.65 µM; in the assay with HS 578T breast it was 16.6 µM; with MDA-MB-231 breast, 9.05 µM; in the assay on MDA-MB-435 it was 3.44 µM. Further, the GI50 with OVCAR-3 ovarian was 2.12 µM; with RPMI-8226 leukemia, 4.02 µM; in the assay on SK-OV-3 ovarian it was 34.1 µM. In addition, the TGI was found to be 42.7 µM in the assay on A549 NSCLC; 12.1 µM with HCC-2998 colon; 10.1 µM with HCT-116 colon; 99.3 µM with HS 578T breast; 33.7 µM in the assay on MDA-MB-231 breast; 13.4 µM in the assay on MDA-MB-435. Further, the TGI in the assay with OVCAR-3 ovarian was 6.47 µM; with RPMI-8226 leukemia, 21.2 µM; in the assay with SK-OV-3 ovarian, > 100 µM.

As for `CCCc1cc2c(=O)c(C(=O)OC)c[nH]c2cc1N(CC)CC`, the GI50 is 38.3 µM in the assay on A549 NSCLC; 76.3 µM in the assay with HCC-2998 colon; 21.5 µM in the assay on HCT-116 colon; 19.6 µM with HS 578T breast; 64.8 µM with MALME-3M melanoma; 30.5 µM in the assay with MDA-MB-231 breast. Further, the GI50 is 47.5 µM in the assay on MDA-MB-435, 16.4 µM in the assay on OVCAR-3 ovarian, 63.2 µM in the assay on RPMI-8226 leukemia and 36.5 µM in the assay with SK-OV-3 ovarian. In addition, the TGI in the assay with A549 NSCLC is > 100 µM; in the assay with HCC-2998 colon, > 100 µM; in the assay on HCT-116 colon it was 59.1 µM; in the assay with HS 578T breast it was 48.1 µM; with MALME-3M melanoma, > 100 µM; with MDA-MB-231 breast, 84.5 µM. For the same molecule, the TGI is > 100 µM in the assay on MDA-MB-435, 38.3 µM in the assay on OVCAR-3 ovarian, > 100 µM in the assay on RPMI-8226 leukemia and > 100 µM in the assay on SK-OV-3 ovarian.

With `CC1(C)N=C(N)N=C(N)N1c1ccc(OCCCCOc2ccc(S(=O)(=O)F)cc2)c(Cl)c1`, the GI50 in the assay on A549 NSCLC was 0.0826 µM; with HCC-2998 colon, 0.485 µM; in the assay on HCT-116 colon it was 0.0463 µM; in the assay with HS 578T breast, 4.85 µM; with MALME-3M melanoma it was 2.38 µM; in the assay on MDA-MB-231 breast it was 1.9 µM. Moreover, the GI50 with MDA-MB-435 is 0.0604 µM; in the assay on OVCAR-3 ovarian it was 0.655 µM; in the assay on RPMI-8226 leukemia, 0.116 µM; in the assay with SK-OV-3 ovarian, 5.88 µM. The TGI came to 14.8 µM in the assay on A549 NSCLC; 18.2 µM in the assay with HCC-2998 colon; 16.7 µM in the assay with HCT-116 colon; 34.3 µM in the assay on HS 578T breast; 37.7 µM in the assay with MALME-3M melanoma; 23.9 µM in the assay on MDA-MB-231 breast. Also, the TGI was 16.3 µM in the assay on MDA-MB-435, 16.6 µM in the assay with OVCAR-3 ovarian, 12 µM with RPMI-8226 leukemia and 24.9 µM in the assay on SK-OV-3 ovarian.

As for `O=C(Nc1cccc(Cl)c1)c1ccc(NC2=C(Cl)C(=O)N(Cc3ccccc3)C2=O)cc1`, the GI50 with A549 NSCLC is 33.3 µM; in the assay on HCC-2998 colon, 1.68 µM; with HCT-116 colon it was 6.31 µM; in the assay with HS 578T breast, 18.6 µM; in the assay with MALME-3M melanoma it was 24 µM; in the assay on MDA-MB-231 breast, 8.08 µM. In addition, the results for the GI50 in the assay on MDA-MB-435, with OVCAR-3 ovarian and in the assay on SK-OV-3 ovarian were 9.43 µM, 6.08 µM and 43.6 µM, respectively. The TGI in the assay with A549 NSCLC was > 100 µM; in the assay on HCC-2998 colon it was 3.83 µM; with HCT-116 colon, 17.2 µM; with HS 578T breast, 48.5 µM; in the assay on MALME-3M melanoma, 78.5 µM; in the assay on MDA-MB-231 breast, 31.9 µM. For the same molecule, the TGI with MDA-MB-435 was 33.6 µM; with OVCAR-3 ovarian, 13.8 µM; in the assay with SK-OV-3 ovarian, > 95.5 µM.

On to `c1ccc2[nH]c(-c3ccc(NN=Nc4ccncc4)cc3)nc2c1`, for which the GI50 with A549 NSCLC is > 100 µM; in the assay on HCT-116 colon it was 26.3 µM; in the assay on HS 578T breast it was > 100 µM; in the assay with MDA-MB-231 breast, > 100 µM; with MDA-MB-435, 30.7 µM; with OVCAR-3 ovarian, 15.1 µM. Further, the GI50 in the assay on RPMI-8226 leukemia was 6.3 µM; in the assay on SK-OV-3 ovarian, > 100 µM. In addition, the TGI in the assay on A549 NSCLC, in the assay on HCT-116 colon, with HS 578T breast, in the assay on MDA-MB-231 breast, in the assay on MDA-MB-435 and in the assay with OVCAR-3 ovarian was > 100 µM each time. In addition, the TGI in the assay on RPMI-8226 leukemia is 38.4 µM; in the assay with SK-OV-3 ovarian, > 100 µM.
